Test results taken from patent publication US12391685B2, “Inhibitors of RNA-guided nuclease target binding and uses thereof” (THE BROAD INSTITUTE, INC., priority 2018, dated 2025).

Tests used:
SpCas9 [1] = biological target: T1, SpCas9 (Streptococcus pyogenes serotype M1, UniProt Q99ZW2); assay: Reversibility of SpCas9 inhibition (pulse-chase, eGFP-disruption assay); type: cell-based, S. pyogenes; set-up: made in house; host or cells: E. coli Rosetta (DE3); details: 15 μM BRD0539 or SpCas9:gRNA:AcrIIA4 complex, media swap 2-24 h
T1 sequence (Q99ZW2 whole entry): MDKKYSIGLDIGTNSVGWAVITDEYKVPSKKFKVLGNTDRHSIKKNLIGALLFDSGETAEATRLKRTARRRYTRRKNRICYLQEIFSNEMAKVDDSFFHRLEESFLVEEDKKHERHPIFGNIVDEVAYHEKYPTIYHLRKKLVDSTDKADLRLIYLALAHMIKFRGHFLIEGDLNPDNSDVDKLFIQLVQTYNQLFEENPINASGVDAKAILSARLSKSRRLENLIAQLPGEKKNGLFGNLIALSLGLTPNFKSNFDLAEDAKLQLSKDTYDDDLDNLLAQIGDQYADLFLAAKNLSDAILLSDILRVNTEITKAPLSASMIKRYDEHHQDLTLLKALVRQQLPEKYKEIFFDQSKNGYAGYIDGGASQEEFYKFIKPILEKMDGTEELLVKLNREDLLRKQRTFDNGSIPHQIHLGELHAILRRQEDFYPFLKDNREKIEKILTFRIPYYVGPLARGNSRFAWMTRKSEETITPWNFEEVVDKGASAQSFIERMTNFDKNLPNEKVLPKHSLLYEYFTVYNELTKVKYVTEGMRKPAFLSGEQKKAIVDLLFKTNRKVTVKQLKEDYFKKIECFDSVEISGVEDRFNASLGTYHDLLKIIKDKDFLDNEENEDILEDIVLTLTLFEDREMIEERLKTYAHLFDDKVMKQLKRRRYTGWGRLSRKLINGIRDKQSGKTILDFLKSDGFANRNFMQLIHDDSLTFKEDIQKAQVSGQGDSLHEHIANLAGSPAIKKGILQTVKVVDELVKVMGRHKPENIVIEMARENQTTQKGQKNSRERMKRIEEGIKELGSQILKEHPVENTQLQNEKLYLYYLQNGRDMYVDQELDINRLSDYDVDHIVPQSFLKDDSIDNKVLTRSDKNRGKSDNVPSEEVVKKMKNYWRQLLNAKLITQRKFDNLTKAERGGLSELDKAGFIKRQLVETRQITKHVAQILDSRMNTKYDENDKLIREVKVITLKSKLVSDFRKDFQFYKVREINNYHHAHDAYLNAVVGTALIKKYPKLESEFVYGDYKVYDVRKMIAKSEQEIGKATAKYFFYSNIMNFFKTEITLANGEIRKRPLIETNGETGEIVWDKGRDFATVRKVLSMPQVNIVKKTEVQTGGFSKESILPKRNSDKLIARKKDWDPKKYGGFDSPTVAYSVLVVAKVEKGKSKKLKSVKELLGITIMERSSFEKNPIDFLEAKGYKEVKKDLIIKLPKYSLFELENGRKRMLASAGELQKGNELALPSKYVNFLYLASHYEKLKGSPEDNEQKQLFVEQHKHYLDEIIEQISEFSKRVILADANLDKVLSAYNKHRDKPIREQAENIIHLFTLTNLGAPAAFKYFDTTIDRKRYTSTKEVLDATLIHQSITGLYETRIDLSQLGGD
Experimental: Reversal of BRD0539-mediated inhibition of SpCas9 was performed in the eGFP-disruption assay where 2×10^5 U2OS.eGFP.PEST cells were nucleofected with preformed SpCas9:gRNA complex as previously discussed. Approximately 22,000 transfected cells/well were plated in 4 replicates in a 96-well plate (Corning® 3904) along with 15 μM of BRD0539 or DMSO. For AcrIIA4 reversibility experiment, a preformed SpCas9:gRNA (10 pmol) was incubated with AcrIIA4 (5×) for 10 min and then nucleofected to U2OS.eGFP.PEST cells following the aforementioned protocol. The media were swapped with the fresh media containing no BRD0539/AcrIIA4 at the indicated time point (2-24 h) and the cells were allowed to grow until 24 h post-nucleofection. Cells were then fixed using 4% paraformaldehyde and imaged with the HCS NuclearMask™ Blue Stain (Life Technologies) as the nuclear counter-staining agent. Imaging was performed with an ImageXpress Micro automated microscope (Molecular Devices) at 10× magnification under three excitation channels (blue, green and red) acquiring nine sites per well. Images were analyzed using MetaXpress software and data were plotted using GraphPad Prism 6.

SpCas9 [2] = biological target: T1, SpCas9; assay: NHEJ assay in HEK293T cells; type: cell-based, S. pyogenes; details: 2-10 μM, 24 h
Experimental: NHEJ assay. Approximately 8,000 cells/well were seeded in a 96-well plate 24 h before transient transfection with a total 100 ng of DN66 (mCherry—TAG—GFP reporter) and DN78 (SpCas9 and gRNA) plasmids (1:1) using Lipofectamine 2000 (Life Technologies) (Nguyen et al., 2016b). Transfected cells were incubated with the indicated amount of small molecule or DMSO for 24 h. Cells were then fixed using 4% paraformaldehyde and imaged with the HCS NuclearMask™ Blue Stain (Life Technologies) as the nuclear counter-staining agent. Imaging was performed with an ImageXpress Micro automated microscope (Molecular Devices) at 4× magnification under three excitation channels (blue, green and red) with 9 acquisition sites per well. Images were analyzed in the MetaXpress software to determine the % NHEJ and the data were plotted using GraphPad Prism 6. The Z′-value was calculated following the formula: Z′=1−(3(σ1+σ2))/(|μ1−μ2|) where σ1 and σ2 are the standard deviations of DN66 transfected wells and (DN66+DN78) transfected wells respectively. μ1 and μ2 are the mean % GFP cell population for DN66 transfected wells and (DN66+DN78) transfected wells respectively.

[3] = biological target: T2, dCas9-based transcription-activation complex (Streptococcus pyogenes serotype M1, UniProt Q99ZW2, D10A, form not given); assay: dCas9-based transcription activation of HBG1 in HEK293FT cells (RT-qPCR); type: cell-based, S. pyogenes; details: 20 μM
T2 construct: "dSpCas9|Feng Zhang lab|NA"; The MS2-p65-HSF1(-GFP) effector is a separate chain recruited through MS2 aptamers in the sgRNA
T2 sequence (Q99ZW2 whole entry, form open, one chain of several, change not shown): as the sequence (Q99ZW2 whole entry) above
Experimental: Transcription activation experiments and quantitative RT-PCR analyses. HEK293FT cells were maintained in high glucose DMEM with glutamax (Life Technologies) and supplemented with 10% FBS (Life Technologies), 1% penicillin-streptomycin (Life Technologies) and 1 mM sodium pyruvate (Life Technologies). For transcription activation experiments, 20,000 cells/well were plated in a poly D-lysine-coated 96-well plate. The cells were transiently transfected with a 1:1:1 mass ratio of the dCas9 plasmid, MS2-P65-HSF1 effector plasmid and the sgRNA plasmid targeting the HBG1 gene or an RFP control plasmid. A total of 0.3 μg plasmid DNA was transfected using Lipofectamine 2000 (Life Technologies) according to manufacturer's protocol. Immediately after transfection, the cells were treated with an appropriate dose of the small-molecule inhibitors. A DMSO solution of compound (20 mM) was resuspended in the 10% FBS containing growth media and thoroughly mixedbefore adding to the cells. After 48 h the cells were lysed and 5 μL of the cell lysate was used to perform reverse transcription using the RevertAid RT Reverse Transcription Kit (Thermo Fischer Scientific) as described by Joung J. et al. qPCR reactions were performed to quantify RNA expression using the TaqMan probes (Life Technologies, HBG1/HBG2: Hs00361131_g1, ACTB: Hs01060665_g1) and TaqMan Fast Advanced Master Mix (Life Technologies) in 5 μL multiplexed reactions and 384-well format using the LightCycler 480 Instrument II (Roche). For each sample, four technical replicates were performed. Data were analyzed using the LightCycler 480 software (Roche) by the ΔΔCt method: Ct values for the gene of interest (HBG1) were normalized to Ct values for the housekeeping gene (ACTB), and fold-changes in the expression level of gene of interest were normalized to RFP-transfected control. The data is reported as mean±S.E.M. for technical replicates.

[4] = system: U2OS.eGFP.PEST cells and HEK293T cells; assay: Cell viability (ATP content); details: 5-20 μM, 24 h

| SMILES | reversibility of SpCas9 inhibition (in words) (SpCas9 [1]) | inhibition of SpCas9 in the NHEJ assay (in words) (SpCas9 [2]) | inhibition of transcriptional activation [3] [%] | cytotoxicity (in words) [4] |
| --- | --- | --- | --- | --- |
| Cc1ccc(S(=O)(=O)N2CC[C@@H]3[C@H](CO)Nc4ccc(-c5ccccc5F)cc4[C@@H]32)cc1 [BRD0539, ((3aR,4R,9bR)-8-(2-fluorophenyl)-1-tosyl-2,3,3a,4,5,9b-hexahydro-1H-pyrrolo[3,2-c]quinolin-4-yl) methanol] | reversible inhibition |  |  |  |
| OC[C@H]1Nc2ccc(-c3cccc(F)c3)cc2[C@H]2[C@@H]1CCN2Cc1ccncc1 [BRD7087, ((3aR,4S,9bR)-8-(3-Fluorophenyl)-1-(pyridin-4-ylmethyl)-2,3,3a,4,5,9b-hexahydro-1H-pyrrolo[3,2-c]quinolin-4-yl) methanol] |  | dose-dependent inhibition | ~60 | non-cytotoxic |
